Source: patent US7196110B2, “N-substituted tricyclic 3-aminopyrazoles as inhibitors for the treatment of cell proliferative disorders” (Janssen Phamaceutica N.V., priority 2002, dated 2007)

Biological target: T1, PDGF-receptor beta enzyme comprising the tyrosine kinase domain (Homo sapiens, UniProt P09619)
T1 construct: from amino acid 545 to 1106 of GenBank Access NO: AAA36427
Assay: Inhibition of PDGF-receptor kinase activity (cell-free, PLC1 peptide, 33P Flashplate)
Format: biochemical
Conditions: PDGF-R kinase activity; for inhibition at 10 µM: compound at 10 uM, read-out: Percent Inhibition @ 10 uM; for IC50: read-out: IC50
Summary of the method: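 Recombinant kinase domain (aa 545–1106) phosphorylated a biotinylated PLC1 peptide with 5 μM ATP plus 33P-γ-ATP, in Tris pH 8, MgCl2, Na3VO4 and 1 mM DTT, for 60 min at 30 °C. Retained 33P was counted after washing. IC50 is the concentration halving activity versus no-inhibitor reactions.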

T1 sequence (P09619 545-1106): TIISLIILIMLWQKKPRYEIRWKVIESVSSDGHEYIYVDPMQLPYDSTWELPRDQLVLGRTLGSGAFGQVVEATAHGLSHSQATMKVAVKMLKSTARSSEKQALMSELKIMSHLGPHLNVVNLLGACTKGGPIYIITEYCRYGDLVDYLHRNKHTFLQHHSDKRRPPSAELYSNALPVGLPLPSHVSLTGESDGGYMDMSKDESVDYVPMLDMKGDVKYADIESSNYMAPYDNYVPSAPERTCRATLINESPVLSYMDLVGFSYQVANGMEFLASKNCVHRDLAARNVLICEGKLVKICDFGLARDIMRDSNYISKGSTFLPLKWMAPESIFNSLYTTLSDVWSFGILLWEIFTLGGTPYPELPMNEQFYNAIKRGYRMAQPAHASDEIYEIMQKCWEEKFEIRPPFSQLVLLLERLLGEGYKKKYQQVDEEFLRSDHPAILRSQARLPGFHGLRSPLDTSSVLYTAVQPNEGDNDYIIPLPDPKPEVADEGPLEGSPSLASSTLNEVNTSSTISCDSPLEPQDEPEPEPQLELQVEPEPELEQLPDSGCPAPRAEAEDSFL

## COCCCOc1ccc2c(c1)Cc1c-2n[nH]c1Nc1cccc(Br)c1 [Compound 141, (3-Bromo-phenyl)-[6-(3-methoxy-propoxy)-2,4-dihydro-indeno[1,2-c]pyrazol-3-yl]-amine]
  inhibition at 10 µM: 83.5%
  IC50: 319 nM

## COCCCOc1ccc2c(c1)Cc1c-2n[nH]c1Nc1cccnc1 [Compound 142, [6-(3-Methoxy-propoxy)-2,4-dihydro-indeno[1,2-c]pyrazol-3-yl]-pyridin-3-yl-amine]
  inhibition at 10 µM: 82.5%
  IC50: 453 nM

## COCCCOc1ccc2c(c1)Cc1c-2n[nH]c1Nc1ccc(OC)cc1 [Compound 143, (4-Methoxy-phenyl)-[6-(3-methoxy-propoxy)-2,4-dihydro-indeno[1,2-c]pyrazol-3-yl]-amine]
  inhibition at 10 µM: 67%
  IC50: 8120 nM

## COc1cccc2c1Cc1c-2n[nH]c1Nc1ccc(F)cc1 [Compound 144, (4-Fluoro-phenyl)-(5-methoxy-2,4-dihydro-indeno[1,2-c]pyrazol-3-yl)-amine]
  inhibition at 10 µM: 96.5%
  IC50: 836 nM

## COc1ccc(Nc2[nH]nc3c2Cc2c(OC)cccc2-3)cc1 [Compound 145, (5-Methoxy-2,4-dihydro-indeno[1,2-c]pyrazol-3-yl)-(4-methoxy-phenyl)-amine]
  inhibition at 10 µM: 48.5%
  IC50: 13900 nM

## COc1cccc2c1Cc1c-2n[nH]c1Nc1cccnc1 [Compound 146, (5-Methoxy-2,4-dihydro-indeno[1,2-c]pyrazol-3-yl)-pyridin-3-yl-amine]
  inhibition at 10 µM: 78.5%
  IC50: 160 nM

## COc1ccc(OC)c(Nc2[nH]nc3c2Cc2c(OC)cccc2-3)c1 [Compound 147, (2,5-Dimethoxy-phenyl)-(5-methoxy-2,4-dihydro-indeno[1,2-c]pyrazol-3-yl)-amine]
  inhibition at 10 µM: 32%
  IC50: 2980 nM

## COc1ccc(Nc2[nH]nc3c2Cc2c(OC)cccc2-3)c(OC)c1 [Compound 148, (2,4-Dimethoxy-phenyl)-(5-methoxy-2,4-dihydro-indeno[1,2-c]pyrazol-3-yl)-amine]
  inhibition at 10 µM: 57%
  IC50: 8600 nM

## COc1cccc2c1Cc1c-2n[nH]c1Nc1cccc(OC(F)(F)F)c1 [Compound 149, (5-Methoxy-2,4-dihydro-indeno[1,2-c]pyrazol-3-yl)-(3-trifluoromethoxy-phenyl)-amine]
  inhibition at 10 µM: 27.5%
  IC50: 8370 nM

## COc1cccc2c1Cc1c-2n[nH]c1Nc1cccc(C(F)(F)F)c1 [Compound 150, (5-Methoxy-2,4-dihydro-indeno[1,2-c]pyrazol-3-yl)-(3-trifluoromethyl-phenyl)-amine]
  inhibition at 10 µM: 85%
  IC50: 823 nM

## Fc1cccc(Nc2[nH]nc3c2Cc2cc(Br)ccc2-3)c1 [Compound 151, (6-Bromo-2,4-dihydro-indeno[1,2-c]pyrazol-3-yl)-(3-fluoro-phenyl)-amine]
  inhibition at 10 µM: 79%
  IC50: 91.8 nM

## Brc1ccc2c(c1)Cc1c-2n[nH]c1Nc1cccnc1 [Compound 152, (6-Bromo-2,4-dihydro-indeno[1,2-c]pyrazol-3-yl)-pyridin-3-yl-amine]
  inhibition at 10 µM: 80%
  IC50: 174 nM

## Fc1ccc(F)c(Nc2[nH]nc3c2Cc2cc(Br)ccc2-3)c1 [Compound 153, (6-Bromo-2,4-dihydro-indeno[1,2-c]pyrazol-3-yl)-(2,5-difluoro-phenyl)-amine]
  inhibition at 10 µM: 79%
  IC50: 1030 nM

## FC(F)(F)Oc1cccc(Nc2[nH]nc3c2Cc2cc(Br)ccc2-3)c1 [Compound 154, (6-Bromo-2,4-dihydro-indeno[1,2-c]pyrazol-3-yl)-(3-trifluoromethoxy-phenyl)-amine]
  inhibition at 10 µM: 29%
  IC50: 41600 nM

## FC(F)(F)c1cccc(Nc2[nH]nc3c2Cc2cc(Br)ccc2-3)c1 [Compound 155, (6-Bromo-2,4-dihydro-indeno[1,2-c]pyrazol-3-yl)-(3-trifluoromethyl-phenyl)-amine]
  inhibition at 10 µM: 53%
  IC50: 8110 nM

## Brc1ccc2c(c1)Cc1c-2n[nH]c1Nc1ccccc1 [Compound 158, (6-Bromo-2,4-dihydro-indeno[1,2-c]pyrazol-3-yl)-phenyl-amine]
  inhibition at 10 µM: 87.5%
  IC50: 186 nM

## CN(C)CCCOc1ccc2c(c1)Cc1c-2n[nH]c1Nc1ccc(F)cc1 [Compound 159, [6-(3-Dimethylamino-propoxy)-2,4-dihydro-indeno[1,2-c]pyrazol-3-yl]-(4-fluoro-phenyl)-amine]
  inhibition at 10 µM: 92.5%
  IC50: 98.9 nM

## CN(C)CCCOc1ccc2c(c1)Cc1c-2n[nH]c1Nc1cccnc1 [Compound 161, [6-(3-Dimethylamino-propoxy)-2,4-dihydro-indeno[1,2-c]pyrazol-3-yl]-pyridin-3-yl-amine]
  inhibition at 10 µM: 84%
  IC50: 382 nM

## COc1ccc(OC)c(Nc2[nH]nc3c2Cc2cc(OCCCN(C)C)ccc2-3)c1 [Compound 162, (2,5-Dimethoxy-phenyl)-[6-(3-dimethylamino-propoxy)-2,4-dihydro-indeno[1,2-c]pyrazol-3-yl]-amine]
  inhibition at 10 µM: 21.5%
  IC50: 54900 nM

## CN(C)CCCOc1ccc2c(c1)Cc1c-2n[nH]c1Nc1cc(F)ccc1F [Compound 163, (2,5-Difluoro-phenyl)-[6-(3-dimethylamino-propoxy)-2,4-dihydro-indeno[1,2-c]pyrazol-3-yl]-amine]
  inhibition at 10 µM: 32%
  IC50: 22700 nM

## CN(C)CCCOc1ccc2c(c1)Cc1c-2n[nH]c1Nc1cccc(C(F)(F)F)c1 [Compound 165, [6-(3-Dimethylamino-propoxy)-2,4-dihydro-indeno[1,2-c]pyrazol-3-yl]-(3-trifluoromethyl-phenyl)-amine]
  inhibition at 10 µM: 92.5%
  IC50: 101 nM

## COCCCOc1cc2c(cc1OC)-c1n[nH]c(Nc3ccc(F)c(Cl)c3)c1C2 [Compound 166, (3-Chloro-4-fluoro-phenyl)-[7-methoxy-6-(3-methoxy-propoxy)-2,4-dihydro-indeno[1,2-c]pyrazol-3-yl]-amine]
  inhibition at 10 µM: 88%
  IC50: 85 nM

## CC(C)Oc1cc2c(cc1OC(C)C)-c1n[nH]c(Nc3ccc(F)c(Cl)c3)c1C2 [Compound 167, (3-Chloro-4-fluoro-phenyl)-(6,7-diisopropoxy-2,4-dihydro-indeno[1,2-c]pyrazol-3-yl)-amine]
  inhibition at 10 µM: 92%
  IC50: 511 nM

## COc1cccc(Nc2[nH]nc3c2Cc2cc(OC(C)C)c(OC(C)C)cc2-3)c1 [Compound 168, (6,7-Diisopropoxy-2,4-dihydro-indeno[1,2-c]pyrazol-3-yl)-(3-methoxy-phenyl)-amine]
  inhibition at 10 µM: 91%
  IC50: 68.8 nM

## CC(C)Oc1cc2c(cc1OC(C)C)-c1n[nH]c(Nc3cccc(F)c3)c1C2 [Compound 169, (6,7-Diisopropoxy-2,4-dihydro-indeno[1,2-c]pyrazol-3-yl)-(3-fluoro-phenyl)-amine]
  inhibition at 10 µM: 89%
  IC50: 36 nM

## COc1ccc(Nc2[nH]nc3c2Cc2ccc(OC)cc2-3)cc1 [Compound 171, (7-Methoxy-2,4-dihydro-indeno[1,2-c]pyrazol-3-yl)-(4-methoxy-phenyl)-amine]
  inhibition at 10 µM: 92.5%
  IC50: 123 nM

## COc1ccc2c(c1)-c1n[nH]c(Nc3cccnc3)c1C2 [Compound 173, (7-Methoxy-2,4-dihydro-indeno[1,2-c]pyrazol-3-yl)-pyridin-3-yl-amine]
  inhibition at 10 µM: 87%
  IC50: 215 nM

## COc1ccc(OC)c(Nc2[nH]nc3c2Cc2ccc(OC)cc2-3)c1 [Compound 174, (2,5-Dimethoxy-phenyl)-(7-methoxy-2,4-dihydro-indeno[1,2-c]pyrazol-3-yl)-amine]
  inhibition at 10 µM: 83%
  IC50: 346 nM

## COc1ccc(Nc2[nH]nc3c2Cc2ccc(OC)cc2-3)c(OC)c1 [Compound 175, (2,4-Dimethoxy-phenyl)-(7-methoxy-2,4-dihydro-indeno[1,2-c]pyrazol-3-yl)-amine]
  inhibition at 10 µM: 71%
  IC50: 3930 nM

## COc1ccc2c(c1)-c1n[nH]c(Nc3cc(F)ccc3F)c1C2 [Compound 176, (2,5-Difluoro-phenyl)-(7-methoxy-2,4-dihydro-indeno[1,2-c]pyrazol-3-yl)-amine]
  inhibition at 10 µM: 46.5%
  IC50: 318 nM

## COc1ccc2c(c1)-c1n[nH]c(Nc3ccc(OC(F)(F)F)cc3)c1C2 [Compound 177, (7-Methoxy-2,4-dihydro-indeno[1,2-c]pyrazol-3-yl)-(4-trifluoromethoxy-phenyl)-amine]
  inhibition at 10 µM: 65.5%
  IC50: 523 nM

## COc1ccc2c(c1)-c1n[nH]c(Nc3ccc(C(F)(F)F)cc3)c1C2 [Compound 178, (7-Methoxy-2,4-dihydro-indeno[1,2-c]pyrazol-3-yl)-(4-trifluoromethyl-phenyl)-amine]
  inhibition at 10 µM: 98.5%
  IC50: 132 nM

## COc1ccc(Nc2[nH]nc3c2Cc2ccc(C)cc2-3)cc1 [Compound 183, (4-Methoxy-phenyl)-(7-methyl-2,4-dihydro-indeno[1,2-c]pyrazol-3-yl)-amine]
  inhibition at 10 µM: 53%
  IC50: 545 nM

## COc1ccc(OC)c(Nc2[nH]nc3c2Cc2ccc(C)cc2-3)c1 [Compound 184, (2,5-Dimethoxy-phenyl)-(7-methyl-2,4-dihydro-indeno[1,2-c]pyrazol-3-yl)-amine]
  inhibition at 10 µM: 94%
  IC50: 1100 nM

## Cc1ccc2c(c1)-c1n[nH]c(Nc3ccc(OC(F)(F)F)cc3)c1C2 [Compound 186, (7-Methyl-2,4-dihydro-indeno[1,2-c]pyrazol-3-yl)-(4-trifluoromethoxy-phenyl)-amine]
  inhibition at 10 µM: 78%
  IC50: 414 nM

## Cc1ccc2c(c1)-c1n[nH]c(Nc3cccc(C(F)(F)F)c3)c1C2 [Compound 187, (7-Methyl-2,4-dihydro-indeno[1,2-c]pyrazol-3-yl)-(3-trifluoromethyl-phenyl)-amine]
  inhibition at 10 µM: 35%

## COc1ccc(Nc2[nH]nc3c2Cc2cc(Cl)ccc2-3)cc1 [Compound 189, (6-Chloro-2,4-dihydro-indeno[1,2-c]pyrazol-3-yl)-(4-methoxy-phenyl)-amine]
  inhibition at 10 µM: 92%
  IC50: 199 nM
